This note sets out measurements from patent US6197963A, “Non-peptide peptidomimetics” (The Trustees of the University of Pennsylvania, priority 1998, dated 2001).

Structures are written as SMILES. pIC50, pKi: −log10 of the molar value. Entries after “also recorded” stand apart in the source; their conditions may differ. Like-named read-outs stand apart in the source and are kept apart here.

The target in test [1] is T1, human neurokinin-1 receptor (NK1R) (Homo sapiens, UniProt P25103).
T1 construct: expressed in transfected cells; host or cells: COS cells
T1 sequence (P25103 whole entry): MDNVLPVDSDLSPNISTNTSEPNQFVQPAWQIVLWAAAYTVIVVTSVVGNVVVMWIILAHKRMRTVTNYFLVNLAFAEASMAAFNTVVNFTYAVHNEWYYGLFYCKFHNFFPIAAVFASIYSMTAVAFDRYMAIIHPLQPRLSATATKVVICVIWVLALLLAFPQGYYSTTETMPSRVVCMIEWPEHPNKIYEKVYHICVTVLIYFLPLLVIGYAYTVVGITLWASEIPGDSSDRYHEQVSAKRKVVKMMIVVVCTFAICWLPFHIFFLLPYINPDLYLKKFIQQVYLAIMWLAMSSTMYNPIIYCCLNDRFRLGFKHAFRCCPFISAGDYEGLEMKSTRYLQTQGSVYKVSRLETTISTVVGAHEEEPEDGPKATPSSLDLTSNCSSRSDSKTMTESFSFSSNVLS
Briefly: Displacement of 125I-substance P from human NK1R expressed in COS cells (Example 12). The class given is binding. The following applies: 125I-substance P, COS cells (Example 12). How it is done:
The affinity of a variety of compounds for the substance P receptor was determined employing the following procedure.
To express the cloned human neurokinin-1 receptor (NK1R) transiently in COS, the cDNA for the human NK1R was cloned into the expression vector pCDM9 which was derived from pCDM8 (Invitrogen) by inserting the ampicillin resistance gene (nucleotide 1973 to 2964 from Bluescript SK+) into the Sac II site. Transfection of 20 μg of the plasmid DNA into 10 million COS cells was achieved by electroporation in 800 μl of the transfection buffer ([…], 1.2 mM MgCl2, 2.4 mM K2 HPO4, 0.6 mM KH2PO4, […], 10 mM HEPES pH 7.4) at 260 V and 950 μF using the IBI Genezapper (IBI, New Haven, Conn.). The cells were incubated in 10% fetal calf serum, 2 mM glutamine, 100 U/ml penicillin-streptomycin, and 90% DMEM media (Gibco, Grand Island, N.Y.) in 5% CO2 at 37° C. for three days before the binding assay.
The binding assay of human NK1R expressed in COS cells is based on the use of ^125 I-substance P (^125 I-SP, from DuPont, Boston, Mass.) as a radioactively labeled ligand which competes with unlabeled substance P or any other ligand for binding to the human NK1R. Monolayer cell cultures of COS were dissociated by the non-enzymatic solution (Specialty Media, Lavallette, N.J.) and resuspended in appropriate volume of the bind buffer (50 mM Tris pH 7.5, 5 mM MnCl2, 150 mM NaCl, 0.04 mg/ml bacitracin, 0.004 mg/ml leupeptin, 0.2 mg/ml BSA, 0.01 mM phosphoramidon) such that 200 μl of the cell suspension would give rise to about 10,000 cpm of specific ^125 I-SP binding (approximately 50,000 to 200,000 cells). In the binding assay, 200 μl of cells were added to a tube containing 20 μl of 1.5 to 2.5 nM of ^125 I-SP and 20 μl of unlabeled substance P or any other test compound. The tubes were incubated at 4° C. or at room temperature for 1 hour with gentle shaking. The bound radioactivity was separated from unbound radioactivity by GF/C filter (Brandel, Gaithersburg, Md.) which was pre-wetted with 0.1 polyethylenimine. The filter was washed with 3 ml of wash buffer (50 Tris pH 7.5, 5 mM MnCl2, 150 mM NaCl) three times and its radioactivity was determined by gamma counter.
A variety of compounds were tested according to the COS cell procedure. The concentration of compound required to inhibit the binding of substance P to the human neurokinin-1 receptor by 50% was measured.
(Displacement assays read how much labelled ligand stays bound in the presence of the test substance.)

The subject of test [2] is SRIF receptors on AtT-20 cells. Briefly: Binding at SRIF receptors of AtT-20 cells (Examples 104-110, Tables 1-3). Set-up: species or system mouse.
The next test addresses hSSTR1 (Homo sapiens, UniProt P30872). Briefly: Binding at human SRIF receptor subtype hSSTR1.
Another test concerns the target hSSTR2 (Homo sapiens, UniProt P30874). The test is described as follows: Binding at human SRIF receptor subtype hSSTR2.
The target of the next test is hSSTR3 (Homo sapiens, UniProt P32745). The test is described as follows: Binding at human SRIF receptor subtype hSSTR3.
Sequence of hSSTR3 (P32745 whole entry): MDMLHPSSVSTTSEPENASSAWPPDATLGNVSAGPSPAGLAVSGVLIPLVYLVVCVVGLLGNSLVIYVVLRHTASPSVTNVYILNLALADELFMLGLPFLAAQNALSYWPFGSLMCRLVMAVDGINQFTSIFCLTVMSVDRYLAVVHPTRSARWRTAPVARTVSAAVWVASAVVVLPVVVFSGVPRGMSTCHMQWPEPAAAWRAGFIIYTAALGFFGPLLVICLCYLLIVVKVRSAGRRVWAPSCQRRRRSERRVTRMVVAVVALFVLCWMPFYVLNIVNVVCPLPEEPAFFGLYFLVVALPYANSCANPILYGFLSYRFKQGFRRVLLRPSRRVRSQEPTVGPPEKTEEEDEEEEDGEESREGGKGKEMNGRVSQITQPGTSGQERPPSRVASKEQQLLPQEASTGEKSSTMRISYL
In another test the target is hSSTR4 (Homo sapiens, UniProt P31391). Briefly: Binding at human SRIF receptor subtype hSSTR4.
Sequence of hSSTR4 (P31391 whole entry): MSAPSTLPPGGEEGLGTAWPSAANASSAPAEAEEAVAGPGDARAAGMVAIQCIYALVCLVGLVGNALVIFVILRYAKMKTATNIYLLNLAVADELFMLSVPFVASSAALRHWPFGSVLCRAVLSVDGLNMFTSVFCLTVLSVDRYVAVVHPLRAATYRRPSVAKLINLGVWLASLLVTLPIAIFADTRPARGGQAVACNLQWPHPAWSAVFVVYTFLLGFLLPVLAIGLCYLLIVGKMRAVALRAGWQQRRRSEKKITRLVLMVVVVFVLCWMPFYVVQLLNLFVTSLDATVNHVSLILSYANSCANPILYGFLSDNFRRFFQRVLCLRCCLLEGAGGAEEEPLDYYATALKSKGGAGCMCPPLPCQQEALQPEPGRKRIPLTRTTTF
A further test deals with hSSTR5 (Homo sapiens, UniProt P35346). Briefly: Binding at human SRIF receptor subtype hSSTR5. The conditions noted are these: for pKi: TABLE 3, read-out: hSSTR 5 Ki.
Sequence of hSSTR5 (P35346 whole entry): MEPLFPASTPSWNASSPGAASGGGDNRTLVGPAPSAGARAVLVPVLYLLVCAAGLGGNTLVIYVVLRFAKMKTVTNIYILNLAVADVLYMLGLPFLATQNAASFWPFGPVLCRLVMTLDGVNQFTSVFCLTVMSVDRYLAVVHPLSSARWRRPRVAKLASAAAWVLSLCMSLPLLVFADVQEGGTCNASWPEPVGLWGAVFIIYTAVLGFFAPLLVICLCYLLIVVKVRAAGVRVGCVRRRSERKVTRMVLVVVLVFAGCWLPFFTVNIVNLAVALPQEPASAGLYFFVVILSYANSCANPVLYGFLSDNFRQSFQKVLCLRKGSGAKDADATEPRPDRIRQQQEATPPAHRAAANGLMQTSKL
A further test relates to five hSSTRs. Briefly: Profile / average over the five human SRIF receptor subtypes. The class given is binding.
For another test, the system named is SRIF receptor. Briefly: Displacement of 125I-CGP-23996 from SRIF receptor on AtT-20 cells (Example 13). It counts as binding, mouse. The conditions noted are these: displacement of 125I-CGP-23996, AtT-20 cells (Example 13).
For a further test, the target named is NK-1 receptor (Homo sapiens, UniProt P25103). Briefly: Binding at the NK-1 receptor (Examples 109-110).
Sequence of NK-1 receptor (P25103 whole entry): as the sequence (P25103 whole entry) above
Setting [3] is: TABLE 1 (Example 105), read-out: AtT-20 cells 50 IC.
Where [4] appears, read: read-out: IC50 at AtT-20 cell membranes.
The mark [5] stands for this setting: read-out: IC50 at the NK-1 receptor.

Sequence of hSSTR1 (P30872 whole entry): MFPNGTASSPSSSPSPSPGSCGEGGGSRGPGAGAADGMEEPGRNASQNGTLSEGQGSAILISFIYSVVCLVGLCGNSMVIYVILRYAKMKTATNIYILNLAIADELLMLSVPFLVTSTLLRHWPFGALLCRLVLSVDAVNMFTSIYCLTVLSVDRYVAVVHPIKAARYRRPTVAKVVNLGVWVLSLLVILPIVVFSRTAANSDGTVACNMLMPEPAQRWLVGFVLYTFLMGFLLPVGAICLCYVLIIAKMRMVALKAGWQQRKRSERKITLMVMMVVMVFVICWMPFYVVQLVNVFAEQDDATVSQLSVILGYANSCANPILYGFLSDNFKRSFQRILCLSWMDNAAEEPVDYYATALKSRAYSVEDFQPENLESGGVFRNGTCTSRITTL
Sequence of hSSTR2 (P30874 whole entry): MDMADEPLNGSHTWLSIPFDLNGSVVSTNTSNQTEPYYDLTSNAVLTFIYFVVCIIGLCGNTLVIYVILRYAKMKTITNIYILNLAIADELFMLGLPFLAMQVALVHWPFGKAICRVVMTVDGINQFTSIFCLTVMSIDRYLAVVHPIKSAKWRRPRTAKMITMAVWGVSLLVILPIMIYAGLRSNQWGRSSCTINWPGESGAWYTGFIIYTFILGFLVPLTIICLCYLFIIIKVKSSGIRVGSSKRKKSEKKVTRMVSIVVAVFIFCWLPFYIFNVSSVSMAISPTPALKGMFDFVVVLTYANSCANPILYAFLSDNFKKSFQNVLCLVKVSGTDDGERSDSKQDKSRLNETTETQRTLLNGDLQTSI

`OC[C@@H]1C[C@H](OCc2ccccc2)[C@@H](OCc2ccccc2)[C@H](OCCc2c[nH]c3ccccc23)O1` [2-Indol-3-yl-ethyl-2,3,-di-O-benzyl-4-deoxy-β-D-glucopyranoside] showed a pIC50 in test [1] of 6.40.
On to `NCCCCCCOC[C@H]1O[C@@H](OCCc2c[nH]c3ccccc23)[C@H](OCc2ccccc2)C[C@@H]1OCc1ccccc1` [III-5b, 2-(1H-Indol-3-yl)ethyl 2,4-Di-O-benzyl-3-deoxy-6-O-(6-aminohexyl)-β-D-glucopyranoside], for which, in test [2] (setting [3]), the pIC50 was 5.15.
As a reminder, the pKi is the negative decadic logarithm of the Ki, by convention in mol/L. `CO[C@@H]1O[C@H](COCCCCCN)[C@@H](OCc2ccccc2)[C@H](OCc2ccccc2)[C@H]1OCc1ccccc1` [III-8a, Methyl 2,3,4-Tri-O-benzyl-6-O-(5-aminopentyl)-β-D-glucopyranoside]: the pIC50 in test [2] (setting [3]) was 5.23; in [2] (TABLE 3 (Example 108), read-out: AtT-20 IC50) it was 5.23; in [2] (setting [4]) it was 5.23. The pKi is 5.62 on hSSTR1 (TABLE 3, read-out: hSSTR 1 Ki); 5.34 on hSSTR2 (TABLE 3, read-out: hSSTR 2 Ki); 5.52 on hSSTR3 (TABLE 3, read-out: hSSTR 3 Ki); 5.70 on hSSTR4 (TABLE 3, read-out: hSSTR 4 Ki); 5.52 on hSSTR5. Moreover, in the test with five hSSTRs, the “hSSTR subtype affinity profile” value is “highest affinity for hSSTR4”.
For the compound `CO[C@@H]1O[C@H](COCCCCCN)C[C@H](OCc2ccccc2)[C@H]1OCc1ccccc1` [III-10, Methyl 2,3-Di-O-benzyl-4-deoxy-6-O-(5-aminopentyl)-β-D-glucopyranoside], the “activity / affinity at SRIF receptors of AtT-20 cells” value in [2] was “inactive”. Moreover, the pIC50 in test [2] (setting [3]) was less than 5.00.
Consider `CO[C@@H]1O[C@H](CO)[C@@H](OCc2ccccc2)[C@H](OCc2ccccc2)[C@H]1OCc1ccccc1` [III-46], for which the IC50 result in the test with SRIF receptor was “does not bind”. Further, the pIC50 in test [1] was 6.00.
As for `NCCCCCOC[C@@H]1O[C@H](OCCc2c[nH]c3ccccc23)[C@@H](OCc2ccccc2)[C@H](OCc2ccccc2)[C@H]1OCc1ccccc1` [IV-11, 2-(1H-Indol-3-yl)ethyl 2,3,4-tri-O-benzyl-6-O-(5'-aminopentyl)-β-L-glucopyranoside], the pKi on hSSTR3 (TABLE 3, read-out: hSSTR 3 Ki) is 5.19; on hSSTR4 (TABLE 3, read-out: hSSTR 4 Ki), 5.70. The “hSSTR subtype affinity profile” value in the test on five hSSTRs was “high affinities for hSSTR2 and hSSTR4 and a low affinity for SSTR1; also recorded: higher relative affinity for SSTR5 and a lesser relative affinity for SSTR3”. The pIC50 at NK-1 receptor (setting [5]) was 6.82.
For `NCCCCCOC[C@@H]1O[C@H](OCCc2c[nH]c3ccccc23)[C@H](OCc2ccccc2)[C@H](OCc2ccccc2)[C@H]1OCc1ccccc1` [IV-22, 2-(1H-Indol-3-yl)ethyl 2,3,4-tri-O-benzyl-6-O-(5'-aminopentyl)-β-L-mannopyranoside], the pKi at hSSTR3 (TABLE 3, read-out: hSSTR 3 Ki) was 5.48; on hSSTR4 (TABLE 3, read-out: hSSTR 4 Ki) it was 5.72. Besides, in the test with five hSSTRs, the “hSSTR subtype affinity profile” value is “high affinities for hSSTR2 and hSSTR4 and a low affinity for SSTR1”.
For `CO[C@@H]1O[C@H](COCCCCCN)[C@@H](OCc2ccccc2)[C@H](OCc2ccccc2)[C@H]1OCc1c[nH]cn1` [IV-30, Methyl 2-O-(4'-methylene-1H-imidazole)-3,4-di-O-benzyl-6-O-(5'-aminopentyl)-β-D-glucopyranoside], the pIC50 in [2] (setting [3]) was less than 5.00.
On to `CO[C@@H]1O[C@H](COCCCCCN)[C@@H](OCc2ccccc2)[C@H](OCc2c[nH]cn2)[C@H]1OCc1ccccc1` [IV-39, Methyl 2,4-di-O-benzyl-3-O-(4'-methylene-1H-imidazole)-6-O-(5'-aminopentyl)-β-D-glucopyranoside], for which the pIC50 in [2] (setting [3]) and in test [2] (setting [4]) was 5.25 each time.
For `NCCCCCOC[C@@H]1O[C@H](OCCc2c[nH]c3ccccc23)[C@H](OCc2c[nH]cn2)[C@H](OCc2ccccc2)[C@H]1OCc1ccccc1` [IV-72, 2-(1H-indol-3-yl)ethyl 2-O-(4'-methylene-1H-imidazole)-3,4-di-O-benzyl-6-O-(5'-amino-pentyl)-β-L-mannopyranoside], the negative logarithm of the Ki (pKi) on hSSTR1 (TABLE 3, read-out: hSSTR 1 Ki) is 6.52; at hSSTR1 (read-out: Ki at SSTR 1), 6.52; at hSSTR2 (TABLE 3, read-out: hSSTR 2 Ki), 6.10; at hSSTR2 (read-out: Ki at SSTR 2), 6.10; at hSSTR3 (TABLE 3, read-out: hSSTR 3 Ki), 6.05; at hSSTR3 (read-out: Ki at SSTR 3), 6.05. Further, the pKi on hSSTR4 (TABLE 3, read-out: hSSTR 4 Ki) is 7.00; at hSSTR4 (read-out: Ki at SSTR 4) it was 7.00; at hSSTR5, less than 5.00. Also, the “binding of SSTR5” value at hSSTR5 is recorded as “failed to bind SSTR5”.
As for `Fc1ccc(COC[C@H]2O[C@@H](OCCc3c[nH]c4ccccc34)[C@H](OCc3ccc4ccccc4c3)[C@@H](OCc3ccccc3)[C@@H]2OCc2ccccc2)cc1` [IV-79, (+)-2-(1H-indol-3-yl)ethyl-3,4-di-O-benzyl-6-O-(4-fluorobenzyl)-2-O-(2-naphthyl)methyl-β-D-glucopyranoside], the “binding of the NK-1 receptor” value at NK-1 receptor is given as “did not bind the NK-1 receptors”.
Same read-out and setting: under `Fc1ccc(OC[C@H]2O[C@@H](OCCc3c[nH]c4ccccc34)[C@H](OCc3ccc4ccccc4c3)[C@@H](OCc3ccccc3)[C@@H]2OCc2ccccc2)cc1` [IV-81, (+)-2-(1H-indol-3-yl)ethyl-3,4-di-O-benzyl-6-O-(4-fluorophenyl)-2-O-(2-naphthyl)methyl-β-D-glucopyranoside] stands “did not bind the NK-1 receptors”; under `Fc1ccc(CO[C@H]2[C@H](OCCc3c[nH]c4ccccc34)O[C@H](COCc3ccc4ccccc4c3)[C@@H](OCc3ccccc3)[C@@H]2OCc2ccccc2)cc1` [IV-84, (+)-2-(1H-inclol-3-yl) ethyl-3, li-di-O-Benzyl 2-O-(4-fluorobenzyl)-B-D-glucopyranoside], “did not bind the NK-1 receptors”.
As for `CC(=O)NCCCCCOC[C@H]1O[C@@H](OCCc2c[nH]c3ccccc23)[C@H](OCc2ccc3ccccc3c2)[C@@H](OCc2ccccc2)[C@@H]1OCc1ccccc1` [IV-92, (+)-2-(1H-indol-3-yl)ethyl-6-O-(N-acetyl-5-aminopentyl)-3,4-di-O-benzyl-2-O-(2-naphthyl)methyl-β-D-glucopyranoside], the “binding of the NK-1 receptor” value at NK-1 receptor is “did not bind the NK-1 receptors”. In addition, the pIC50 on NK-1 receptor (setting [5]) is 6.68.
With `CC(=O)NCCCCCOC[C@H]1O[C@@H](OCCc2c[nH]c3ccccc23)[C@H](OCc2ccccc2)[C@@H](OCc2ccccc2)[C@@H]1O` [IV-99, (-)-2-(1H-indol-3-yl)ethyl-6-O-(N-acetyl-5-aminopentyl)-2,3-di-O-benzyl-β-D-glucopyranoside], the pIC50 at NK-1 receptor (read-out: affinity at the NK-1 receptor) is 7.57.
`CC(C)[C@@H]1NC(=O)[C@H](CCCCN)NC(=O)[C@@H](Cc2c[nH]c3ccccc23)NC(=O)[C@H](Cc2ccc(O)cc2)NC(=O)[C@H](C)N(C)C(=O)[C@H](Cc2ccccc2)NC1=O` [MK 678, reference compound]: the pIC50 in the test on SRIF receptor (read-out: IC50) is 7.22.
